Measured values from paper PMC10828988, “Tuning the Softness of the Pendant Arms and the Polyazamacrocyclic Backbone to Chelate the ^203Pb/^212Pb Theranostic Pair” (Inorganic Chemistry, 2024).
Several values for one entry are separate records, joined by “and”; a condition that tells them apart may be missing. Equal values may be shown once. Read-outs that look alike come from different tables or passages of the source.

Columns and labels:
[1] = Acid-mediated dissociation kinetics in aqueous HCl (UV-Vis); type: physicochemical; details: room temperature
Description: The dissociation kinetics of the Pb^2+ complexes were studied under pseudo-first-order conditions at room temperature without control of the ionic strength by the addition of a concentrated aqueous solution of HCl (0.01 to 1 M) to aqueous solutions of the preformed complexes. The concentration of the Pb^2+ complexes after the H^+ addition was 1.0 × 10^–4 M. The dissociation reaction was followed by the decreasing intensity of the absorption band of the complexes at the characteristic wavelength (Table S2) using the same apparatus described for the formation kinetic measurements (vide supra).
The data were processed and fitted using the equation lnAt = lnA0 – ^dkobst, where At and A0 are the absorbances at time t and at the beginning of the reaction and ^dkobs is the observed dissociation rate constant. The corresponding half-life was obtained from the equation t1/2 = ln(2)/^dkobs.

[2] = set-up: method as in PMID 35571797, doi:10.1002/ejic.200700819; details: state-of-the-art ligands, computed from literature constants; cited from earlier work
[3] = Concentration-dependent radiolabeling with [203Pb]Pb2+ (iTLC); details: for effect of a change in reaction time on RCI: 5 min vs 1 h; for effect of a change in reaction time on RCI / radiochemical incorporation (RCI) of [^203Pb]Pb^2+ / RCI of [^203Pb]Pb^2+: pH = 7, room temperature; for RCI of [^203Pb]Pb^2+ on heating: T = 80 °C; for RCI of [^203Pb]Pb^2+: after 5 min
Procedure: Water replaced the ligands in the negative control. All of the radiolabeling for the cyclen-based derivatives was performed at room temperature and monitored at 5 min and 1 h time points whereas heating at T = 80 °C was also employed for TACD3S, TRI4S, and TE4S. All radiolabeling reactions were repeated at least in triplicate.
Radiochemical incorporation (RCI) was determined via instant thin-layer chromatography (iTLC) with silicic acid (SA)-impregnated paper TLC plates (iTLC-SA, Agilent Technologies, USA). Ethylenediamine tetraacetic acid (EDTA, 50 mM, pH = 5.5) was used as the eluent. […] The iTLC plates were analyzed on an Eckert & Ziegler AR-2000 TLC scanner, and all the data were processed with Eckert & Ziegler WinScan software.

[4] = Formation kinetics of Pb2+ complexes (UV-Vis / 1H NMR); type: physicochemical; details: for ability to complex Pb^2+: pH < 7, 1H NMR of metal-ligand mixtures; for Pb^2+ complex formation: below pH = 4, after 2 weeks at room temperature or prolonged heating, UV-Vis; for time to reach equilibrium of Pb^2+ complexation: pH = 5, equimolar ligand and metal concentrations (10^–4 M), room temperature
Procedure: The formation kinetics of the Pb^2+ complexes was evaluated at room temperature by UV–Vis or ^1H NMR spectroscopy. A typical experiment was performed by mixing equimolar amounts of metal and ligand solutions (final concentrations: 1.0 × 10^–4 M for UV–Vis, 1.0 × 10^–3 M for ^1H NMR) in buffered media at pH = 2 (HCl 10^–2 M), pH = 3.7 (formic/formiate buffer), pH = 5 (acetic/acetate buffer), and pH = 7.4 (2-[4-(2-hydroxyethyl)piperazin-1-yl]ethanesulfonic acid, i.e., HEPES, buffer). To avoid the formation of PbCO3 (Ks = 7.4 × 10^–14), water was boiled before each measurement.
The electronic spectra were collected in the 200–800 nm range at different time points using a Cary 60 UV–Visible spectrophotometer (Agilent) equipped with a 1 cm path length quartz cell. The complexation reactions were monitored by the increase in the absorption peaks diagnostic of the Pb^2+-ligand complex formation at the characteristic wavelength (Table S2) over time. ^1H NMR spectra were recorded on a 400 MHz Bruker Avance III HD spectrometer. All data were collected […] with Topspin 3.5 using standard Bruker processing parameters with Topspin 4.1.1 software. […] Water suppression was carried out with the excitation sculpting pulse scheme.[38]

[5] = Out-of-cell UV-Vis spectrophotometric titrations (stability constants, pPb); type: physicochemical; details: for log β, Pb^2+ + L ⇋ [PbL]: UV–Vis spectrophotometric titrations, I = 0.15 M NaNO3, T = 25 °C; for pPb = −log[Pb^2+]free / pPb* (−log of free Pb^2+ plus hydrolysis products): calculated at CPb^2+ = 10^–6 M, Cligand = 10^–5 M, pH = 7.4
Procedure: The ionic strength (I) was fixed to 0.15 M using sodium nitrate (NaNO3) as background electrolytes. All of the experiments described below were repeated at least in triplicate.
UV–Vis spectrophotometric titrations were carried out by the out-of-cell method in the pH range of 0–12 at T = 25 °C. […] A Mettler Toledo pH meter with a glass electrode was used to measure the pH. […] In highly acidic solutions (pH ≪ 2), the pH was computed from the acid concentration (pH = −logCH^+). After the pH adjustment, the vials were sealed, heated to T = 60 °C to ensure complete Pb^2+ complexation, and cooled to room temperature. The absorption spectra were recorded using the same apparatus described for the kinetic measurements (vide supra). The equilibrium was reached when no variations of the electronica spectra or the pH were detected.
All equilibrium data were processed using the least-squares fitting program PITMAP as described in our previous works.[2],[4],[28] The overall equilibrium constants refer to the general equilibria pM^m+ + qH^+ + rL^l– ⇆ MpHqLr^pm+q–rl, where M^m+ represent the metal ion and L^l– represents the deprotonated ligand, and are designated as logβ (βpqr = [MpLqHr]/[M]^p[L]^q[H]^r). The refinements of log β included the previously determined ligand protonation constants and the Pb^2+ hydrolysis products whose equilibrium constants were fixed to the literature values.[27],[39] […] The errors quoted are the standard deviations of the overall stability constants calculated by the PITMAP program.

[6] = set-up: method as in PMID 33527221; details: cited from earlier work

| Molecule | radiochemical incorporation (RCI) of [^203Pb]Pb^2+ ([3]; ligand 10^–7 M, 1 h) | ability to complex Pb^2+ [4] | RCI of [^203Pb]Pb^2+ on heating ([3]; ligand 10^–4 M) | radiochemical incorporation (RCI) of [^203Pb]Pb^2+ ([3]; ligand 10^–4 M, 1 h) | time to reach equilibrium of Pb^2+ complexation [4] | log β, Pb^2+ + L ⇋ [PbL] [5] | pPb = −log[Pb^2+]free [5] | pPb* (−log of free Pb^2+ plus hydrolysis products) [5] | further results |
| --- | --- | --- | --- | --- | --- | --- | --- | --- | --- |
| CSCCN1CCNCCN(CCSC)CCN(CCSC)CC1.[Pb+2] [[Pb(DO3S)]^2+] |  |  |  |  |  |  |  |  | t1/2 acid-assisted dissociation ([1]; CHCl 0.01 M): 12 ± 2 min; ^dkobs acid-assisted dissociation ([1]; CHCl 0.1 M): 1.5 ± 0.3 min^–1; t1/2 acid-assisted dissociation ([1]; CHCl 0.1 M): 0.47 ± 0.09 min; t1/2 acid-assisted dissociation ([1]; CHCl 1.0 M): ^b (Instantaneous decomplexation during the reagent mixing time.) |
| NC(=O)CN1CCN(CC(N)=O)CCN(CC(N)=O)CCN(CC(N)=O)CC1 [TCMC, 1,4,7,10-tetraaza-1,4,7,10-tetra-(2-carbamoylmethyl)-cyclododecane, reference compound] | 41 ± 1% |  |  |  |  |  |  |  | pPb [2]: > 18; effect of a change in reaction time on RCI [3]: no effect; radiochemical incorporation (RCI) of [^203Pb]Pb^2+ ([3]; ligand concentrations higher than 10^–6 M): quantitative |
| CSCCN1CCCN(CCSC)CCN(CCSC)CCCN(CCSC)CC1 [TE4S, 1,4,8,11-tetrakis[2-(methylsulfanyl)ethyl]-1,4,8,11-tetrazacyclotetradecane] |  | not be able to complex Pb^2+ | only vaguely improved | no radiometal incorporation was observed |  |  |  |  |  |
| CSCCN1CCNCCN(CCSC)CCN(CCSC)CC1 [DO3S, 1,4,7-tris[2-(methylsulfanyl)ethyl]-1,4,7,10-tetraazacyclododecane] | 2 ± 1% |  |  | 88 ± 1% and 88% | 6 h | 14.2 ± 0.1 | 11.3 | 11.0 | Pb^2+ complex formation [4]: No complex formation was detected; RCI of [^203Pb]Pb^2+ [3]: 65% |
| CSCCN1CCCN(CCSC)CCCN(CCSC)CCC1 [TACD3S, 1,5,9-tris[2-(methylsulfanyl)ethyl]-1,5,9-triazacyclododecane] |  | not be able to complex Pb^2+ | only vaguely improved | no radiometal incorporation was observed |  |  |  |  |  |
| 1,4,7-tris[2-(methylsulfanyl)ethyl]-10-acetamido-1,4,7,10-tetraazacyclododecane [DO3SAm] | 14 ± 4% |  |  | > 90% | 1 h | 16.8 ± 0.1 | 14.2 | 13.9 | effect of a change in reaction time on RCI [3]: no effect; radiochemical incorporation (RCI) of [^203Pb]Pb^2+ ([3]; ligand 10^–5 M, 1 h): > 90%; radiochemical incorporation (RCI) of [^203Pb]Pb^2+ ([3]; ligand 10^–6 M, 1 h): 68 ± 4%; radiochemical incorporation of [^203Pb]Pb^2+ ([3]; room temperature, 5 min reaction time, chelator concentration as low as 10^–5 M): quantitative radiochemical incorporation |
| O=C(O)CN1CCN(CC(=O)O)CCN(CC(=O)O)CCN(CC(=O)O)CC1 [DOTA, 1,4,7,10-tetraazacyclododecane-1,4,7,10-tetraacetic acid] |  |  |  |  |  |  |  |  | pPb [2]: 20; RCI of [^203Pb]Pb^2+ ([6]; ligand 10^–4 M): 96 ± 1%; RCI of [^203Pb]Pb^2+ ([6]; ligand 10^–5 M): 76 ± 9%; RCI of [^203Pb]Pb^2+ ([6]; ligand 10^–6 M): 3 ± 1%; RCI of [^203Pb]Pb^2+ ([6]; ligand 10^–7 M): 1.5 ± 0.2% |
| CSCCN1CCCN(CCSC)CCN(CCSC)CCN(CCSC)CC1 [TRI4S, 1,4,7,10-tetrakis[2-(methylsulfanyl)ethyl]-1,4,7,10-tetrazacyclotridecane] |  | not be able to complex Pb^2+ | only vaguely improved | no radiometal incorporation was observed |  |  |  |  |  |
| CSCCN1CCN(CCSC)CCN(CCSC)CCN(CCSC)CC1 [DO4S, 1,4,7,10-tetrakis[2-(methylsulfanyl)ethyl]-1,4,7,10-tetraazacyclododecane] | 1.4 ± 0.4% |  |  | 81 ± 10% and 81% | 24 h | 12.3 ± 0.1 | 10.2 | 10.0 | Pb^2+ complex formation [4]: No complex formation was detected; reaction time of Pb^2+ complexation ([4]; pH = 7.4, room temperature): 1 h; RCI of [^203Pb]Pb^2+ [3]: 35% |
